In ChEMBL document CHEMBL4422651, “Revisiting tubercidin against kinetoplastid parasites: Aromatic substitutions at position 7 improve activity and reduce toxicity” (Eur J Med Chem, 2019):
The source made the active and inactive calls. The calls are words filed in the database; no cut-off is given here.

Tests used:
Trypanosoma brucei [1] = test: (§1) Inhibition of [3H]-adenosine transport at Trypanosoma brucei Adenosine transporter P2 expressed in pentamidine/diminazene/melaminophenyl arsenical resistant Trypanosoma brucei B48 bloodstream forms after 60 secs by scintillation counting analysis
Trypanosoma brucei [2] = test: (§2) Inhibition of [3H]-adenosine transport at Trypanosoma brucei Adenosine transporter P1 expressed in pentamidine/diminazene/melaminophenyl arsenical resistant Trypanosoma brucei B48 bloodstream forms after 60 secs by scintillation counting analysis
Trypanosoma cruzi [3] = test: Antitrypanosomal activity against nifurtimox-sensitive Trypanosoma cruzi Tulahuen CL2 harboring beta-galactosidase infected in human MRC5 cells after 7 days by resazurin dye-based assay; format: functional, organism-based; conditions: for EC50: Tulahuen CL2, MRC5, 168 h
[4] = test system: Trypanosoma brucei brucei; test: Antitrypanosomal activity against Trypanosoma brucei brucei Squib 427 after 48 hrs by alamar blue assay; format: functional, organism-based; conditions: Squib 427, 48 h
[5] = Selectivity index, ratio of EC50 for human MRC5 cells to EC50 for Trypanosoma brucei brucei Squib 427; format: toxicity; conditions: read-out: Ratio EC50
[6] = Selectivity index, ratio of EC50 for human MRC5 cells to EC50 for Trypanosoma brucei rhodesiense STIB-900; format: toxicity; conditions: read-out: Ratio EC50
MRC5 = test: Cytotoxicity against human MRC5 cells assessed as reduction in cell viability after 3 days by resazurin dye-based assay; conditions: MRC5, 72 h
[7] = test system: Trypanosoma brucei rhodesiense; test: Antitrypanosomal activity against Trypanosoma brucei rhodesiense STIB-900 after 48 hrs by alamar blue assay; format: functional, organism-based; conditions: STIB-900, 48 h
[8] = Selectivity index, ratio of EC50 for human MRC5 cells to EC50 for nifurtimox-sensitive Trypanosoma cruzi Tulahuen CL2 harboring beta-galactosidase; format: toxicity; conditions: read-out: Ratio EC50
Leishmania infantum = test: Antileishmanial activity against Leishmania infantum amastigotes infected in Swiss mouse primary peritoneal macrophages assessed as reduction in parasite burden after 5 days by Giemsa staining-based microscopic analysis; format: functional, organism-based; conditions: 120 h
Trypanosoma cruzi [9] = test: Potency index, ratio of EC50 for benznidazole to EC50 for test compound for antitrypanosomal activity against nifurtimox-sensitive Trypanosoma cruzi Tulahuen CL2 harboring beta-galactosidase infected in human MRC5 cells after 7 days by resazurin dye-based assay; format: functional
Peritoneal macrophage = test: Cytotoxicity against Swiss mouse primary peritoneal macrophages assessed as reduction in cell viability after 5 days; format: cell-based; conditions: 120 h
[10] = as §1
[11] = as §2
Trypanosoma brucei [12] = test: Antitrypanosomal activity against Trypanosoma brucei TbAT1-KO after 48 hrs by alamar blue assay; format: functional, organism-based
Trypanosoma brucei [13] = test: Antitrypanosomal activity against wild type Trypanosoma brucei Lister 427 after 48 hrs by alamar blue assay; format: functional, organism-based; conditions: Lister 427, 48 h
Trypanosoma congolense = test: Antitrypanosomal activity against Trypanosoma congolense by resazurin assay; format: functional, organism-based
Trypanosoma brucei [14] = test: Antitrypanosomal activity against pentamidine/diminazene/melaminophenyl arsenical resistant Trypanosoma brucei B48 after 48 hrs by alamar blue assay; format: functional, organism-based; conditions: B48, 48 h
Trypanosoma brucei [15] = test: Antitrypanosomal activity against isometamidium resistant Trypanosoma brucei ISMR1 after 48 hrs by alamar blue assay; format: functional, organism-based; conditions: ISMR1, 48 h

Nc1ncnc2c1ncn2[C@@H]1O[C@H](CO)[C@@H](O)[C@H]1O
Km (Trypanosoma brucei [1]): 0.53 µM
Km (Trypanosoma brucei [2]): 0.16 µM

Nc1ncnc2c1c(-c1ccc3ccccc3c1)cn2[C@@H]1O[C@H](CO)[C@@H](O)[C@H]1O
Activity (Trypanosoma cruzi [3]): inactive
EC50 [4]: 7.83 µM
selectivity ratio [5]: 0.96
selectivity ratio [6]: 1.2
EC50 (MRC5): 7.53 µM
EC50 [7]: 6.79 µM

Nc1ncnc2c1c(-c1cccc(Cl)n1)cn2[C@@H]1O[C@H](CO)[C@@H](O)[C@H]1O
Activity (Trypanosoma cruzi [3]): inactive
EC50 [4]: 1.75 µM
selectivity ratio [5]: > 37
selectivity ratio [6]: > 103
EC50 (MRC5): > 64 µM
EC50 [7]: 0.62 µM

Nc1ncnc2c1c(-c1ccc(Cl)c(Cl)c1)cn2[C@@H]1O[C@H](CO)[C@@H](O)[C@H]1O
selectivity ratio [8]: 77.4
EC50 (Trypanosoma cruzi [3]): 0.19 µM
EC50 [4]: 3.07 µM
selectivity ratio [5]: 4.8
selectivity ratio [6]: 46
EC50 (Leishmania infantum): 1.67 µM
EC50 (MRC5): 14.7 µM
Ratio EC50 (Trypanosoma cruzi [9]): <=10
EC50 (Peritoneal macrophage; Mus musculus, Swiss, Peritoneal macrophage): 20 µM
EC50 [7]: 0.32 µM

Nc1ncnc2c1c(-c1cccnc1)cn2[C@@H]1O[C@H](CO)[C@@H](O)[C@H]1O
Ki [10]: 49.3 µM
Activity (Trypanosoma cruzi [3]): inactive
EC50 [4]: > 64 µM
EC50 (MRC5): > 64 µM
Ki [11]: 21.7 µM

Cc1ccc(C(=O)Nc2ccc(S(=O)(=O)O)c3cc(S(=O)(=O)O)cc(S(=O)(=O)O)c23)cc1NC(=O)c1cccc(NC(=O)Nc2cccc(C(=O)Nc3cc(C(=O)Nc4ccc(S(=O)(=O)O)c5cc(S(=O)(=O)O)cc(S(=O)(=O)O)c45)ccc3C)c2)c1 [SURAMIN]
EC50 [4]: 0.05 µM
selectivity ratio [5]: > 1280
selectivity ratio [6]: > 1600
EC50 (MRC5): > 64 µM
EC50 [7]: 0.04 µM

O=C(Cn1ccnc1[N+](=O)[O-])NCc1ccccc1 [BENZNIDAZOLE]
selectivity ratio [8]: > 23
EC50 (MRC5): > 64 µM

Cc1ccc(-c2cn([C@@H]3O[C@H](CO)[C@@H](O)[C@H]3O)c3ncnc(N)c23)cc1
Activity (Trypanosoma cruzi [3]): inactive
EC50 [4]: 29.1 µM
selectivity ratio [5]: 0.9
EC50 (MRC5): 26.2 µM

Nc1ncnc2c1c(-c1cncnc1)cn2[C@@H]1O[C@H](CO)[C@@H](O)[C@H]1O
Activity (Trypanosoma cruzi [3]): inactive
EC50 [4]: 52.4 µM
selectivity ratio [5]: > 1.2
EC50 (MRC5): > 64 µM

Cc1ccnc(-c2cn([C@@H]3O[C@H](CO)[C@@H](O)[C@H]3O)c3ncnc(N)c23)c1
Activity (Trypanosoma cruzi [3]): inactive
EC50 [4]: 38.2 µM
selectivity ratio [5]: > 1.7
selectivity ratio [6]: > 2.5
EC50 (MRC5): > 64 µM
EC50 [7]: 25.1 µM

Nc1ncnc2c1c(-c1ccccc1)cn2[C@@H]1O[C@H](CO)[C@@H](O)[C@H]1O
Activity (Trypanosoma cruzi [3]): inactive
EC50 [4]: 32.3 µM
selectivity ratio [5]: 1.7
selectivity ratio [6]: 14
EC50 (MRC5): 56.2 µM
EC50 [7]: 4.1 µM

Nc1ncnc2c1c(-c1ccc3ccccc3n1)cn2[C@@H]1O[C@H](CO)[C@@H](O)[C@H]1O
Activity (Trypanosoma cruzi [3]): inactive
EC50 [4]: 6.45 µM
selectivity ratio [5]: > 9.9
selectivity ratio [6]: > 17
EC50 (MRC5): > 64 µM
EC50 [7]: 3.72 µM

Nc1ncnc2c1c(-c1cc3ccccc3cn1)cn2[C@@H]1O[C@H](CO)[C@@H](O)[C@H]1O
Activity (Trypanosoma cruzi [3]): inactive
EC50 [4]: 14.7 µM
selectivity ratio [5]: > 4.4
selectivity ratio [6]: > 10
EC50 (MRC5): > 64 µM
EC50 [7]: 6.16 µM

COc1ccnc(-c2cn([C@@H]3O[C@H](CO)[C@@H](O)[C@H]3O)c3ncnc(N)c23)c1
Activity (Trypanosoma cruzi [3]): inactive
EC50 [4]: 25.5 µM
selectivity ratio [5]: 0.3
selectivity ratio [6]: 0.9
EC50 (MRC5): 7.59 µM
EC50 [7]: 8.15 µM

Nc1ncnc2c1c(-c1cccc(Cl)c1)cn2[C@@H]1O[C@H](CO)[C@@H](O)[C@H]1O
Activity (Trypanosoma cruzi [3]): inactive
EC50 [4]: 9.9 µM
selectivity ratio [5]: 3.3
selectivity ratio [6]: 4.8
EC50 (MRC5): 32.8 µM
EC50 [7]: 6.88 µM

Nc1ncnc2c1c(-c1ccc(F)cc1)cn2[C@@H]1O[C@H](CO)[C@@H](O)[C@H]1O
selectivity ratio [8]: > 130
EC50 (Trypanosoma cruzi [3]): 0.49 µM
EC50 [4]: 8.81 µM
selectivity ratio [5]: > 7.3
selectivity ratio [6]: > 4.4
EC50 (MRC5): > 64 µM
Ratio EC50 (Trypanosoma cruzi [9]): <=10
EC50 [7]: 14.7 µM

COc1ccc(-c2cn([C@@H]3O[C@H](CO)[C@@H](O)[C@H]3O)c3ncnc(N)c23)cc1
Activity (Trypanosoma cruzi [3]): inactive
EC50 [4]: 41.6 µM
selectivity ratio [5]: 0.67
EC50 (MRC5): 28 µM

Nc1ncnc2c1c(-c1cnccn1)cn2[C@@H]1O[C@H](CO)[C@@H](O)[C@H]1O
Activity (Trypanosoma cruzi [3]): inactive
EC50 [4]: 1.95 µM
selectivity ratio [5]: 0.28
EC50 (MRC5): 0.55 µM

Cn1cncc1-c1cn([C@@H]2O[C@H](CO)[C@@H](O)[C@H]2O)c2ncnc(N)c12
Activity (Trypanosoma cruzi [3]): inactive
EC50 [4]: 33.3 µM
selectivity ratio [5]: > 1.9
EC50 (MRC5): > 64 µM

Cn1cnc(-c2cn([C@@H]3O[C@H](CO)[C@@H](O)[C@H]3O)c3ncnc(N)c23)c1
Activity (Trypanosoma cruzi [3]): inactive
EC50 [4]: 4.76 µM
selectivity ratio [5]: 4.9
EC50 (MRC5): 23.4 µM

Nc1ncnc2c1c(-c1ccc(Cl)cn1)cn2[C@@H]1O[C@H](CO)[C@@H](O)[C@H]1O
Activity (Trypanosoma cruzi [3]): inactive
EC50 [4]: 8.97 µM
selectivity ratio [5]: > 7.1
selectivity ratio [6]: > 13
EC50 (MRC5): > 64 µM
EC50 [7]: 4.6 µM

Nc1ncnc2c1c(-c1ccccc1F)cn2[C@@H]1O[C@H](CO)[C@@H](O)[C@H]1O
Activity (Trypanosoma cruzi [3]): inactive
EC50 [4]: 33.3 µM
selectivity ratio [5]: 1.8
selectivity ratio [6]: 2.3
EC50 (MRC5): 61 µM
EC50 [7]: 26.3 µM

Nc1ncnc2c1c(-c1ncccn1)cn2[C@@H]1O[C@H](CO)[C@@H](O)[C@H]1O
Activity (Trypanosoma cruzi [3]): inactive
EC50 [4]: 2.26 µM
selectivity ratio [5]: 6.3
EC50 (MRC5): 14.3 µM

Nc1ncnc2c1c(-c1cc(Cl)ccn1)cn2[C@@H]1O[C@H](CO)[C@@H](O)[C@H]1O
Activity (Trypanosoma cruzi [3]): inactive
EC50 [4]: 8.92 µM
selectivity ratio [5]: 3.1
selectivity ratio [6]: 4
EC50 (MRC5): 27.3 µM
EC50 [7]: 6.88 µM

N=C(N)c1ccc(/N=N/Nc2ccc(C(=N)N)cc2)cc1 [DIMINAZENE]
EC50 (Trypanosoma brucei [12]): 4.5 µM
EC50 (Trypanosoma brucei [13]): 0.42 µM
EC50 (Trypanosoma congolense): 0.22 µM
EC50 (Trypanosoma brucei [14]): 7.2 µM
EC50 (Trypanosoma brucei [15]): 2.9 µM

Nc1ncnc2c1c(-c1ccc(F)cn1)cn2[C@@H]1O[C@H](CO)[C@@H](O)[C@H]1O
Activity (Trypanosoma cruzi [3]): inactive
EC50 [4]: 4.77 µM
selectivity ratio [5]: > 13
selectivity ratio [6]: > 38
EC50 (MRC5): > 64 µM
EC50 [7]: 1.69 µM

CC[n+]1c(-c2ccccc2)c2cc(N/N=N/c3cccc(C(=N)N)c3)ccc2c2ccc(N)cc21 [ISOMETAMIDIUM]
EC50 (Trypanosoma brucei [12]): 0.75 µM
EC50 (Trypanosoma brucei [13]): 0.65 µM
EC50 (Trypanosoma brucei [14]): 0.56 µM
EC50 (Trypanosoma brucei [15]): 3.1 µM

Nc1ncnc2c1c(-c1ccncc1)cn2[C@@H]1O[C@H](CO)[C@@H](O)[C@H]1O
Ki [10]: 9.34 µM
Activity (Trypanosoma cruzi [3]): inactive
EC50 [4]: > 64 µM
EC50 (MRC5): 55.8 µM
Ki [11]: 12.5 µM

Nc1ncnc2c1c(-c1cc(Cl)cc(Cl)c1)cn2[C@@H]1O[C@H](CO)[C@@H](O)[C@H]1O
Activity (Trypanosoma cruzi [3]): inactive
EC50 [4]: 8.17 µM
selectivity ratio [5]: > 7.8
selectivity ratio [6]: > 17
EC50 (MRC5): > 64 µM
EC50 [7]: 3.66 µM

Nc1ncnc2c1c(-c1ccc(Cl)cc1)cn2[C@@H]1O[C@H](CO)[C@@H](O)[C@H]1O
selectivity ratio [8]: 57.4
EC50 [4]: 7.58 µM
selectivity ratio [5]: 3.6
EC50 (MRC5): 27 µM
Ratio EC50 (Trypanosoma cruzi [9]): <=10

Nc1ncnc2c1ccn2[C@@H]1O[C@H](CO)[C@@H](O)[C@H]1O [TUBERCIDIN]
selectivity ratio [8]: 6.5
EC50 (Trypanosoma brucei [12]): 2.61 µM
Ki [10]: 3.8 µM
EC50 (Trypanosoma cruzi [3]): 0.34 µM
EC50 [4]: 0.48 µM
selectivity ratio [5]: 4.6
EC50 (Leishmania infantum): 0.13 µM
EC50 (MRC5): 2.23 µM
EC50 (Trypanosoma brucei [13]): 0.15 µM
EC50 (Trypanosoma brucei [14]): 4.3 µM
EC50 (Trypanosoma brucei [15]): 1.7 µM
Activity (Peritoneal macrophage; mouse, peritoneal macrophage): Toxic
Ki [11]: 78 µM

N=C(N)c1ccc(OCCCCCOc2ccc(C(=N)N)cc2)cc1 [PENTAMIDINE]
EC50 (Trypanosoma brucei [12]): 0.018 µM
EC50 (Trypanosoma brucei [13]): 0.011 µM
EC50 (Trypanosoma congolense): 1.9 µM
EC50 (Trypanosoma brucei [14]): 0.99 µM
EC50 (Trypanosoma brucei [15]): 0.14 µM

Nc1ncnc2c1c(-c1nccc3ccccc13)cn2[C@@H]1O[C@H](CO)[C@@H](O)[C@H]1O
Activity (Trypanosoma cruzi [3]): inactive
EC50 [4]: > 64 µM
selectivity ratio [6]: > 1.2
EC50 (MRC5): > 64 µM
EC50 [7]: 55.6 µM
